The subject of data set [1] is MCF-7 cells. As to the kind of experiment: MTT cytotoxicity assay in MCF-7 cells. Format: cell-based, human. The note with it: means ± sd, n = 3. How it is done:
The in vitro anticancer activity of the designed coumarin-thiosemicarbazones and coumarin-thiazolidine-4-one hybrids against MCF-7 cells was tested using the MTT assay, and 5-fluorouracil (5-FU) was used as the reference drug. The tested compounds were used in different concentrations, and cell survival was determined after incubation for 48 h as reported. The cytotoxic activity is represented in Table 1 as IC50 (µM) values.
(§1) MCF-7 breast cancer cell line (ATCC® HTB-22™) plus non-tumorigenic epithelial cell line (MCF 10, ATCC® CRL-10317™) were supplied from VACSERA (Cairo, Egypt) and cultured in Dulbecco’s Modified Eagle Medium (Invitrogen-Life Technologies, Carlsbad, CA, USA) with 1% antibiotic solution (streptomycin–penicillin) plus 10% fetal bovine serum (Hyclone) in a 5% (v/v) humidified CO2 incubator at 37 °C.
Firstly, cells were kept in a humidified atmosphere (37 °C, 24 h), and then incubated with serial concentrations of the tested compounds. After 48 h, the medium was aspirated, and then cells were incubated with 5% MTT solution (M-5655; Sigma Aldrich, St. Louis, MO USA) (200 µL/well, 2 h), allowing the dye to metabolize into the colored insoluble formazan complex that was then dissolved in the appropriate solubilization solution (M-8910) (200 µL/well), for 30 min with gentle mixing at room temperature. The UV absorbance was measured using a microplate reader (570 nm), and cell viability was determined with respect to untreated control cells. […] The values were means ± sd; n = 3.
A general note: Tetrazolium dyes change colour on reduction, which living cells bring about.

Data set [2] deals with MCF-7 cells. Briefly: Cell cycle analysis by flow cytometry (propidium iodide). Format: cell-based, human. As to conditions: MCF-7, treated at IC50, 48 h. How it is done:
VIIb-treated cells were subjected to cell cycle phase distribution analysis as well as apoptosis rates determination by flow cytometric analysis in MCF-7 cells, as reported.
Control and VIIb-treated (IC50 µM, 48 h) MCF-7 cells were harvested and then subjected to cell cycle analysis by flow cytometry.
Cell cycle analysis and apoptosis rates following VIIb treatment were investigated using a Propidium Iodide Flow Cytometry Kit (ab139418; Abcam, Cambridge, UK) and Annexin V-FITC apoptosis kit (Catalog: K101-25; BioVision Research Products, San Francisco, CA, USA), respectively, following the manufacturer’s instructions as stated by a previous study.

The next data set deals with PI3K α. As to conditions: cited from earlier work.
The next data set has as its system PI3K β. As to conditions: Figure 1, pan PI3K inhibitor; cited from earlier work.
For the next data set, the system named is PI3K δ. As to conditions: cited from earlier work.
The test system of data set [3] is MCF 10 non-tumorigenic epithelial cell line. Briefly: MTT assay in non-cancerous epithelial cells (MCF 10). Format: cell-based. The note with it: for IC50: Homo sapiens, MCF10, MTT assay, non-cancerous epithelial cells, means ± sd, n = 3; for Selectivity Index MCF-10/MCF-7: ratio of IC50 MCF-10 to IC50 MCF-7. The procedure: as §1
Firstly, cells were kept in a humidified atmosphere (37 °C, 24 h), and then incubated with serial concentrations of the tested compounds. After 48 h, the medium was aspirated, and then cells were incubated with 5% MTT solution (M-5655; Sigma Aldrich, St. Louis, MO USA) (200 µL/well, 2 h), allowing the dye to metabolize into the colored insoluble formazan complex that was then dissolved in the appropriate solubilization solution (M-8910) (200 µL/well), for 30 min with gentle mixing at room temperature. The UV absorbance was measured using a microplate reader (570 nm), and cell viability was determined with respect to untreated control cells.

The next data set deals with T1, Akt-1 (Homo sapiens, UniProt P31749).
T1 construct: purchased Abcam ab139436
T1 sequence (P31749 whole entry, species assumed): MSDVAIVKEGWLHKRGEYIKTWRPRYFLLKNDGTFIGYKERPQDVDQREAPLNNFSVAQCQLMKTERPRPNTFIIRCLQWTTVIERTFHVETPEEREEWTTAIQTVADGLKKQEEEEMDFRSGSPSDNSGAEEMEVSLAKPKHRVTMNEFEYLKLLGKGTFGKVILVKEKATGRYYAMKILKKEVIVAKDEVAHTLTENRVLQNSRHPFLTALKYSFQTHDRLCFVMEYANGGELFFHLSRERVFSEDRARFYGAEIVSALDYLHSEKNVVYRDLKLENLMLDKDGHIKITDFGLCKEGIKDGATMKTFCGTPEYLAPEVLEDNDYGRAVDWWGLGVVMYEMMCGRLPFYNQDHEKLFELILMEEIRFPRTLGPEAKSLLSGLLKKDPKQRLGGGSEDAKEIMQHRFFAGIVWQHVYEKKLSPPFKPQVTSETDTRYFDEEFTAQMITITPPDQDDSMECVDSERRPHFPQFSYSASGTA
Briefly: Akt Kinase Activity assay kit. Format: biochemical. As to conditions: means ± sd, n = 3; read-out: IC50 (µM) Akt-1 Isoform. The text has this: Accumulating evidence highlighted that PI3K signaling pathway upregulation is highly implicated in breast cancer development and disease progression as well as resistance to hormones and cytotoxic therapy. Therefore, it is essential to elucidate the effect of the novel compound, VIIb, on the PI3K/Akt signaling pathway by using in vitro PI3K class 1A enzyme inhibition assay conducted on PI3K-α and PI3K-γ isoforms as well as an Akt-1 enzyme inhibition assay. […] Furthermore, targeting the PI3K-γ isoform in breast cancer could contribute to enhancing the anti-tumor immunity.
The in vitro inhibition of PI3K and Akt kinase activities by VIIb was assessed using a PI3Kα (p110α/p85) assay kit (Catalog #79781; BPS Bioscience, Inc, San Diego, CA, USA), PI3Kγ (p110γ/PIK3R5) assay kit (Catalog #79803; BPS Bioscience, Inc, San Diego, CA, USA), and Akt Kinase Activity assay kit (ab139436; Abcam, Cambridge, UK) following the manufacturer’s instructions as described previously. The results were expressed as IC50 values using dose–response curves and linear regression equations. LY294002 compound was taken as the reference compound. The values were means ± sd; n = 3.

Another data set deals with Akt. As to conditions: Figure 1, reported Akt inhibitor; cited from earlier work.

The values below come from article PMC9027131, “Dual PI3K/Akt Inhibitors Bearing Coumarin-Thiazolidine Pharmacophores as Potential Apoptosis Inducers in MCF-7 Cells” (Pharmaceuticals, 2022).

Structures are written as SMILES. Read-outs that look alike come from different tables or passages of the source.

On to `CCOc1ccc2c(C)cc(=O)oc2c1C(C)=NN=C1SCC(=O)N1C` (mixture of isomers) [VIIIa, (Z/E)-2-{[1-(7-Ethoxy-4-methylcoumarin-8-yl)-ethylidene]-hydrazono}-3-methyl-thiazolidin-4-one], for which it took 20.3 ± 1.06 µM to reach half-maximal inhibition in the data set on MCF-7 cells [1] (48 h) (IC50). `CCOc1ccc2c(C)cc(=O)oc2c1C(C)=NN=C1SCC(=O)N1CC` (mixture of isomers) [VIIIb, (Z/E)-2-{[1-(7-Ethoxy-4-methylcoumarin-8-yl)-ethylidene]-hydrazono}-3-ethyl-thiazolidin-4-one] yielded an IC50 in the data set on MCF-7 cells [1] (48 h) of 57.3 ± 2.99 µM. Further, in the data set with MCF-7 cells [2] (control 1.55), the “DNA Content % Pre G1” value is recorded as 35.25%. The “DNA Content % G2/M” value in the data set with MCF-7 cells [2] (control 9.71) was determined as 5.59%. Moreover, the “DNA Content % S” value in the data set with MCF-7 cells [2] (control 36.58) turned out to be 46.02%. Further, the “DNA Content % G0/G1” value in the data set with MCF-7 cells [2] (control 53.71) stood at 48.39%. Take `C=CCN1C(=O)CSC1=NN=C(C)c1c(OCC)ccc2c(C)cc(=O)oc12` (mixture of isomers) [VIIIc, (Z/E)-3-Allyl-2-{[1-(7-ethoxy-4-methylcoumarin-8-yl)-ethylidene]-hydrazono}-thiazolidin-4-one]: in the data set on MCF-7 cells [1] (48 h), the midpoint of inhibition, the IC50, lay at 4.95 ± 0.26 µM.

In the data set with MCF-7 cells [1] (48 h), `CCOc1ccc2c(C)cc(=O)oc2c1C(C)=NN=C1SCC(=O)N1Cc1ccccc1` (mixture of isomers) [VIIId, (Z/E)-3-Benzyl-2-{[1-(7-ethoxy-4-methylcoumarin-8-yl)-ethylidene]-hydrazono}-thiazolidin-4-one] yielded an IC50 of 79.9 ± 4.18 µM.

Take `CCOc1ccc2c(C)cc(=O)oc2c1C(C)=NN=C1SCC(=O)N1C(=O)c1ccccc1` (mixture of isomers) [VIIIe, (Z/E)-3-Benzoyl-2-{[1-(7-ethoxy-4-methylcoumarin-8-yl)-ethylidene]-hydrazono}-thiazolidin-4-one]: 26.4 ± 1.38 µM corresponded to half-maximal inhibition in the data set with MCF-7 cells [1] (48 h) (IC50). As for `COc1ccc(-c2nc(N/N=C/c3c[nH]c4ccccc34)nc(N3CCOCC3)c2C#N)cc1` [Compound 1], the IC50 in the data set on PI3K α (Figure 1, pan PI3K inhibitor, read-out: IC50 (α)) is 0.96 µM; in the data set with PI3K β, 0.94 µM; with PI3K δ (Figure 1, pan PI3K inhibitor), 0.64 µM.

Consider `O=c1[nH]cc(F)c(=O)[nH]1` [Compound 5-FU, 5-fluorouracil, reference compound], for which the IC50 in the data set on MCF-7 cells [1] (Homo sapiens, MCF7, 48 h) was 27.8 ± 1.41 µM; in data set [3] it was 36.2 ± 1.89 µM. Moreover, the “Selectivity Index MCF-10/MCF-7” value in data set [3] is listed as 1.30. Consider `O=c1cc(N2CCOCC2)oc2c(-c3ccccc3)cccc12` [LY294002, reference compound], for which, on Akt-1, the IC50 was 3.53 ± 0.18 µM. On to `NC1(c2ccc(-c3nc4ccn5c(=O)[nH]nc5c4cc3-c3ccccc3)cc2)CCC1` [MK-2206], for which, in the data set with Akt, the half-inhibitory concentration (IC50) is 0.008 µM. As to `CS(=O)(=O)N1CCN(Cc2cc3nc(-c4cccc5[nH]ncc45)nc(N4CCOCC4)c3s2)CC1` [Pictilisb], the IC50 in the data set with PI3K α (Figure 1, PI3Ka/d, read-out: IC50 (a)) is […]; in the data set on PI3K δ (Figure 1, PI3Ka/d), […]. As to `CCOc1ccc2c(C)cc(=O)oc2c1/C(C)=N\NC(=S)NC` [VIa, (Z/E)-1(1-(7-ethoxy-4-methylcoumarin)ethylidene)-4-methyl-thiosemicarbazone], the melting point is 202 to 204 °C. For the same compound, the midpoint of inhibition in the data set on MCF-7 cells [1] (Homo sapiens, MCF7, 48 h), the IC50, lay at 11.1 ± 0.58 µM. Taken in the same sequence, the figures for `CCNC(=S)N/N=C(/C)c1c(OCC)ccc2c(C)cc(=O)oc12` [VIb, (Z/E)-1(1-(7-ethoxy-4-methylcoumarin)ethylidene)-4-ethyl-thiosemicarbazone] were 183 °C and 38.7 ± 2.09 µM.

In turn, `C=CCNC(=S)N/N=C(/C)c1c(OCC)ccc2c(C)cc(=O)oc12` [VIc, (Z/E)-1(1-(7-ethoxy-4-methylcoumarin)ethylidene)-4-allyl-thiosemicarbazone] had a melting point of 100 to 102 °C. Besides, in the data set on MCF-7 cells [1] (Homo sapiens, MCF7, 48 h), the IC50 turned out to be 2.72 ± 0.13 µM. The corresponding values for `CCOc1ccc2c(C)cc(=O)oc2c1/C(C)=N\NC(=S)NCc1ccccc1` [VId, (Z/E)-1(1-(7-ethoxy-4-methylcoumarin)ethylidene)-4-benzyl-thiosemicarbazone] are 140 to 143 °C and 2.61 ± 0.14 µM.

The compound `CCOc1ccc2c(C)cc(=O)oc2c1/C(C)=N\NC(=S)NC(=O)c1ccccc1` [VIe, (Z/E)-1(1-(7-ethoxy-4-methylcoumarin)ethylidene)-4-benzoyl-thiosemicarbazone] had a melting point of 220 to 223 °C. In the data set on MCF-7 cells [1] (Homo sapiens, MCF7, 48 h), this compound had an IC50 of 43.1 ± 2.25 µM. `CCOc1ccc2c(C)cc(=O)oc2c1/C(C)=N\NC(=S)Nc1ccc(OC)cc1` [VIf] had an IC50 in the data set on MCF-7 cells [1] (Homo sapiens, MCF7, 48 h) of 1.21 ± 0.06 µM. In [3], the concentration for half-maximal inhibition (IC50) amounted to 20.1 ± 1.05 µM and the “Selectivity Index MCF-10/MCF-7” value is on record as 16.61. `C/C(=N/NC(=S)NCc1ccccc1)c1c(O)ccc2c(C)cc(=O)oc12` [Va] gave an IC50 in the data set on MCF-7 cells [1] (Homo sapiens, MCF7, 48 h) of 5.13 ± 0.28 µM.

For the compound `C/C(=N/NC(=S)NC(=O)c1ccccc1)c1c(O)ccc2c(C)cc(=O)oc12` [Vb], in the data set on MCF-7 cells [1] (Homo sapiens, MCF7, 48 h), the IC50 amounted to 47.3 ± 2.47 µM.

The term IC50 denotes the concentration needed to halve the response being measured. By melting point is commonly meant the temperature, or range, at which the solid turns liquid.
